In brackets after ≈: the same amount, converted by molar mass. Activity calls are given as the source filed them. No cut-off for these calls is given here.
Legend:
HeLa = assay: Cytotoxicity against human HeLa S3 cells; type: functional, cell-based
Jurkat = assay: Cytotoxicity against human Jurkat cells; type: functional, cell-based
Pyricularia grisea [1] = assay: Inhibition of 1,16-hexadecanediol-induced appressorium formation in germinating conidia of Magnaporthe grisea P1; type: functional, organism-based
Pyricularia grisea [2] = assay: Inhibition of hydrophobic gel bonded surface-induced appressorium formation in germinating conidia of Magnaporthe grisea P1; type: functional, organism-based
[3] = Cytotoxicity against mouse B16-F1cells; type: functional, cell-based; conditions: B16-F1
HL-60 = assay: Cytotoxicity against human HL60 cells; type: functional, cell-based
Pyricularia grisea [4] = assay: Inhibition of chlorophenylthio-cAMP-induced appressorium formation in germinating conidia of Magnaporthe grisea P1; type: functional, organism-based

C/C1=C\[C@@H](O)C/C(C)=C/[C@H](O)[C@H]([C@@H](C)CO)CC1
IC50 (HeLa): > 100 µg/mL
IC50 (Jurkat): 20 µg/mL (≈ 78.6 µM)
Activity (Pyricularia grisea [1]): inactive
Activity (Pyricularia grisea [2]): inactive
IC50 [3]: > 100 µg/mL
IC50 (HL-60): 10 µg/mL (≈ 39.3 µM)
IC50 (Pyricularia grisea [4]): 50 µg/mL (≈ 197 µM)

C=C[C@@](C)(O)CC/C=C(\C)CC[C@H](O)C(C)(C)O
IC50 (HeLa): 75 µg/mL (≈ 293 µM)
IC50 (Jurkat): 20 µg/mL (≈ 78 µM)
Activity (Pyricularia grisea [1]): inactive
Activity (Pyricularia grisea [2]): inactive
IC50 [3]: 75 µg/mL (≈ 293 µM)
IC50 (HL-60): 5 µg/mL (≈ 19.5 µM)
IC50 (Pyricularia grisea [4]): 10 µg/mL (≈ 39 µM)

— ChEMBL document CHEMBL1155593, “Bioactive sesquiterpenes from the basidiomycete Resupinatus leightonii” (J Nat Prod, 2000)
